We go through 34 compounds from US11420934B2, “PPAR agonists” (Salk Institute for Biological Studies, priority 2013, dated 2022).

The structures appear in SMILES notation. Where two headings read alike, the source gives them in different places.

The target of data set [1] is T1, PPARδ (Homo sapiens, UniProt Q03181).
T1 construct: expressed in transfected cells; host or cells: PathHunter NHR cell lines
T1 sequence (Q03181 1-441): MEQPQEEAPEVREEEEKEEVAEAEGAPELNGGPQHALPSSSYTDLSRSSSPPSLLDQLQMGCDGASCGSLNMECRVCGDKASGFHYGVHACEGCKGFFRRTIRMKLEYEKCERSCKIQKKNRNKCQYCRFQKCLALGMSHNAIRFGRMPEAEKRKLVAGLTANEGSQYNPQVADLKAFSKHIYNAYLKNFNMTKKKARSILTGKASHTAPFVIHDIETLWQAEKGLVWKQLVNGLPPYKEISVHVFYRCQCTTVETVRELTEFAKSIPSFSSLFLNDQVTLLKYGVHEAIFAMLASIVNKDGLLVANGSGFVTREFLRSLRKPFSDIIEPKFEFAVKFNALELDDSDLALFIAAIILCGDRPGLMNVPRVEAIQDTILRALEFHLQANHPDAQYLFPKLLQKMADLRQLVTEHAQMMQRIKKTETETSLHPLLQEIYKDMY
The data set is described as follows: Nuclear Hormone Receptor (NHR) protein interaction assay (PathHunter), agonist format. The format is cell-based. The method, then:
PathHunter NHR cell lines were expanded from freezer stocks according to standard procedures. Cells were seeded in a total volume of 20 μL into white walled, 384-well microplates and incubated at 37° C. for the appropriate time prior to testing. Assay media contained charcoal-dextran filtered serum to reduce the level of hormones present.
For agonist determination, cells were incubated with sample to induce response. Intermediate dilution of sample stocks was performed to generate 5× sample in assay buffer. 5 μL of 5× sample was added to cells and incubated at 37° C. or room temperature for 3-16 hours. Final assay vehicle concentration was 1%.
Microplates were read following signal generation with a PerkinElmer Envision™ instrument for chemiluminescent signal detection.
Compound activity was analyzed using CBIS data analysis suite (ChemInnovation, CA). For agonist mode assays, percentage activity was calculated using the following formula: % Activity=100%×(mean RLU of test sample−mean RLU of vehicle control)/(mean MAX control ligand−mean RLU of vehicle control).

A short description of data set [2]: Pharmacokinetics in CD-1 mice. The format is in vivo. The protocol:
(§1) In this example, the PK profile of several PPARδ agonists disclosed herein in male CD-1 mice or Wistar rats was determined. Similar methods can be used to analyze other compounds provided herein.
(§2) (quantity sufficient i.e. made up to a final volume of 100% with water). All compounds were separately administered to CD-1 mice at 3 mg/kg iv or 10 mg/kg po.
(§3) The concentration of the compound in plasma was determined, as illustrated in FIGS. 9A-9E.

The nature of data set [3]: Pharmacokinetics in Wistar rats. The format is in vivo. The conditions noted are these: male Wistar rats. The protocol:
as §1, §2, §3

The format of data set [4] is in vitro ADME.
For data set [5], the system named is thermal injury to the TA. Put plainly: Muscle regeneration after thermal (freeze burn) injury to the TA, oral GW501516. The format is in vivo, C57BL6J mice. The protocol: A stainless steel […] (Mettler-Toledo) equilibrated to the temperature of dry ice was placed directly on the exposed TA for 10 seconds. Following the thermal injury, incision was closed using VetBond (3M). All injury procedures were performed on the left leg, and the right leg was used as control.
Sterile 1% w/v Evans Blue dye in PBS was intraperitoneally injected at 1% volume relative to the body mass of an animal. 7 hours after the injection, injured TA muscles were harvested and snap-frozen by isopentane quenching in liquid nitrogen. Frozen sections were cut in 10 μm thickness, fixed in ice-cold acetone, dipped in xylene and mounted with DPX. Proportion of the stained area over the total area was measured using ImageJ software.
50 mg/kg body weight of BrdU (Sigma) was injected intraperitoneally as solution of 10 mg/mL BrdU in saline. TA muscles were harvested at 7 days after injury and processed for paraffin sections as described above. BrdU incorporation was visualized using the BrdU Labeling and Detection Kit I (Roche) and BrdU+ nuclei were counted and represented as a proportion of total nuclei in a field.
Whole or partial tissues were homogenized by Polytron probe homogenizer in Trizol reagent (Invitrogen). Total RNA was extracted from the homogenates according to the manufacturer's protocol. 1 μg of DNase-treated total RNA was reverse transcribed using Superscript II Reverse Transcriptase (Invitrogen) according to the manufacturer's instructions. cDNAs were diluted 1/40 with ddH2O and used as templates in RT-QPCR reactions with SYBRGreenER qPCR SuperMix detection system (Invitrogen). Samples were prepared in technical triplicates and relative mRNA levels were calculated by using the standard curve methodology and normalized against GAPDH mRNA levels in the same samples.

In data set [6] the test system is FGF1a promoter. Put plainly: Luciferase reporter assay of FGF1a promoter co-transfected with PPARδ. The format is cell-based. The following applies: with ligand.
The test system of data set [7] is AKO mice. Put plainly: GW treatment in mouse model of ALD (AKO mice). The format is in vivo. The source says: ALD is a rare genetic disorder caused by defects in peroxisomal oxidation of very long-chain fatty acids (VLCFAs), resulting in systemic accumulation of VLCFAs, which causes tissue defects mainly in the central nervous system and the adrenal glands. The majority of VLCFAs in the body are endogenously synthesized from long-chain fatty acids (LCFAs). Therefore, one potential way to prevent VLCFA accumulation in ALD is by inducing mitochondrial LCFA oxidation to reduce the availability of LCFAs for VLCFA biosynthesis. In order to test this, a previously described mouse model of ALD was used, in which the X-linked adrenoleukodystrophy gene abcd1 was systemically ablated and the knockout (AKO) mice faithfully recapitulated the abnormal VLCFA accumulation phenotype seen in ALD patients.
3-month-old AKO mice were treated with or without GW and their tissues collected for free FA analysis using GC/MS.

The mark [8] stands for this setting: Tables 7-16, read-out: NHR protein interaction assay, EC50 (nM) for PPARδ.

For orientation: EC50 means the concentration that produces a half-maximal response. Turning to `CC(C)N(Cc1ccccc1OCCCCCC(=O)O)C(=O)c1ccc(Cl)cc1` [Compd 125], the 50% effective concentration (EC50) in data set [1] (setting [8]) was 291 nM.
For `CC(C)N(Cc1ccccc1OCCCCCC(=O)O)C(=O)c1ccc(N(C)C)cc1` [Compd 128], in data set [1] (setting [8]), the EC50 was found to be 5390 nM.
Still for that read-out and setting: for `Cc1ccc(C(=O)N(Cc2ccccc2OCCCCCC(=O)O)C(C)C)cc1` [Compd 131] the value was 1610 nM; for `CC(C)N(Cc1ccccc1OCCCCCC(=O)O)C(=O)c1ccc(C#CC2CC2)cc1` [Compd 245], 10.5 nM.
For the compound `Cc1cc(SCc2sc(-c3ccc(C(F)(F)F)cc3)nc2C)ccc1OCC(=O)O` [GW501516], the Kel was 0.11 h⁻¹ in data set [2] (3 mg/Kg i.v.) and 0.09 h⁻¹ in data set [3] (3 mg/Kg i.v.). The figures for the F in data set [2] (10 mg/Kg p.o.) and in data set [3] (10 mg/Kg p.o.) were 82.1% and roughly 100%, respectively. Moreover, the “% Parent remained at 15 min, MLM” value in data set [4] was 93/76%. In data set [4], the “% Parent remained at 60 min, MLM” value is on record as 93/76%. Also, the “Evans Blue dye uptake, proportion of muscle cross sectional area (CSA) stained” value in data set [5] (5 mg/kg orally, 4 days prior to and 5 days after injury, 5 days after the injury, vehicle 7.6%) is listed as 4.9%. For the same compound, the “expression of inflammatory marker genes by QPCR” value in data set [5] (3 days after the injury) is “significantly reduced”. Besides, the “reduction in the proportion of stained area” value in data set [5] (5 days after the injury, versus vehicle) is 34.7%. The “PPARδ target genes (PDK4, CPT1b, catalase) expression in TA by QPCR” value in data set [5] (9 day treatment) was “Up-regulation”. In addition, the “number of quiescent satellite cells” value in data set [5] (after 9 days or 4 weeks of ligand treatment) is listed as “an increase in the number of quiescent satellite cells was not observed”. The “induction of FGF1a (luciferase reporter)” value in data set [6] is listed as “induction of FGF1a”.
With `Cc1cc(SCc2sc(-c3ccc(C(F)(F)F)cc3)nc2C)ccc1OCC(=O)O` [GW], in data set [7] (8 weeks of GW treatment), the “liver C26:0” value is reported as “cleared in most GW-treated animals”. Moreover, the “levels of VLCFAs (C22:0, C23:0, C24:0, C26:0) in AKO brain and liver” value in data set [7] (8 weeks of GW treatment, GC/MS) was “significantly reduced”. Besides, in data set [7] (GW treatment), the “expression of mitochondrial FA oxidation genes (Cpt1a, 1b, Slc25a20, Acadl) in AKO liver and skeletal muscle” value is given as “dramatically induced”; the “saturated LCFAs C12:0 to C22:0 and total FAs in liver and muscle” value is on record as “significantly reduced”.
Consider `COc1ccc(C(=O)N(Cc2ccccc2OCCCCCC(=O)O)C(C)C)cc1` [compound 126], for which the EC50 in data set [1] (setting [8]) turned out to be 1300 nM.
Turning to `CC(C)N(Cc1ccccc1OCCCCCC(=O)O)C(=O)c1ccc(OC(F)(F)F)cc1` [compound 127], the concentration giving a half-maximal response (EC50) in data set [1] (setting [8]) turned out to be 44.6 nM.
Same read-out and setting: then `CC(=O)c1ccc(C(=O)N(Cc2ccccc2OCCCCCC(=O)O)C(C)C)cc1` [compound 129], with 5070 nM.
For `CC(C)N(Cc1ccccc1OCCCCCC(=O)O)C(=O)c1ccc(S(C)(=O)=O)cc1` [compound 130], in data set [1], the concentration giving a half-maximal response (EC50) was greater than 10000 nM.
On to `CC(C)N(Cc1ccccc1OCCCCCC(=O)O)C(=O)c1ccc(F)cc1` [compound 132], for which the EC50 in data set [1] (setting [8]) came to 2180 nM.
In the case of `CC(C)N(Cc1ccccc1OCCCCCC(=O)O)C(=O)c1ccc(OC2CC2)cc1` [compound 134], the EC50 in data set [1] was greater than 10000 nM.
`CC(C)N(Cc1ccccc1OCCCCCC(=O)O)C(=O)c1ccc(N2CCCC2)cc1` [compound 136]: the EC50 in data set [1] (setting [8]) was 352 nM.
For the compound `CC(C)N(Cc1ccccc1OCCCCCC(=O)O)C(=O)c1ccc(C#N)cc1` [compound 151], the concentration for a half-maximal effect (EC50) in data set [1] (setting [8]) was 894 nM.
In data set [1], `CC(C)N(Cc1ccccc1OCCCCCC(=O)O)S(=O)(=O)c1ccc(-c2ccco2)cc1` [compound 152] came in with a concentration giving a half-maximal response (EC50) greater than 10000 nM.
Turning to `CC(C)N(Cc1ccccc1OCCCCCC(=O)O)C(=O)c1ccc(-c2ccco2)cn1` [compound 153], a half-maximal response in data set [1] (EC50) required 206 nM.
The same measure, in the same setting: for `CC(C)N(Cc1ccccc1OCCCCCC(=O)O)C(=O)c1ccc(-c2ccco2)nc1` [compound 155] the value was 26.1 nM; for `CC(C)N(Cc1ccccc1OCCCCCC(=O)O)C(=O)c1cnc(-c2ccco2)s1` [compound 156], 143 nM; for `CC(C)N(Cc1ccc(-c2ccco2)cc1)C(=O)c1ccccc1OCCCCCC(=O)O` [compound 157], greater than 10000 nM.
Same read-out and setting: then `CC(C)N(C(=O)Cc1ccccc1OCCCCCC(=O)O)c1ccc(-c2ccco2)cc1` [compound 158], with greater than 10000 nM; and `O=C(O)CCCCCOc1ccccc1CN(CC(F)(F)F)C(=O)c1ccc(-c2ccco2)cc1` [compound 177], with 12.1 nM.
Same read-out and setting: for `COCCN(Cc1ccccc1OCCCCCC(=O)O)C(=O)c1ccc(-c2ccco2)cc1` [compound 178] the value was 79.4 nM; for `O=C(O)CCCCCOc1ccccc1CNC(=O)c1ccc(-c2ccco2)cc1` [compound 179], 485 nM.
`CC(C)N(Cc1cc(Br)ccc1OCCCCCC(=O)O)C(=O)c1ccc(-c2ccco2)cc1` [compound 202]: in data set [1] (setting [8]), the concentration for a half-maximal effect (EC50) turned out to be 7.3 nM.
The same measure, in the same setting: for `Cc1ccc(OCCCCCC(=O)O)c(CN(C(=O)c2ccc(-c3ccco3)cc2)C(C)C)c1` [compound 203] the value was 7.1 nM; for `CC(C)N(Cc1cc(F)ccc1OCCCCCC(=O)O)C(=O)c1ccc(-c2ccco2)cc1` [compound 204], 24.6 nM.
For `CC(C)N(Cc1cc(C#N)ccc1OCCCCCC(=O)O)C(=O)c1ccc(-c2ccco2)cc1` [compound 205], the EC50 in data set [1] worked out at 224 nM.
In the case of `COc1ccc(OCCCCCC(=O)O)c(CN(C(=O)c2ccc(-c3ccco3)cc2)C(C)C)c1` [compound 206], the EC50 in data set [1] (setting [8]) came out at 5.1 nM.
Compound `CC(C)N(Cc1cccnc1OCCCCCC(=O)O)C(=O)c1ccc(-c2ccco2)cc1` [compound 207] registered an EC50 in data set [1] of 19.4 nM.
The same measure, in the same setting: for `CC(C)N(Cc1ccccc1OCCCCc1nn[nH]n1)C(=O)c1ccc(-c2ccco2)cc1` [compound 219] the value was 338 nM.
Turning to `CC(C)N(Cc1ccccc1OCCCCCCC(=O)O)C(=O)c1ccc(-c2ccco2)cc1` [compound 220], the EC50 in data set [1] (setting [8]) came out at 512 nM.
Consider `CC(C)N(Cc1ccccc1OCCCOCC(=O)O)C(=O)c1ccc(-c2ccco2)cc1` [compound 221], for which, in data set [1], the concentration giving a half-maximal response (EC50) worked out at 1300 nM.
For the compound `O=C(O)CCCCCOc1ccccc1CN(Cc1ccccc1)C(=O)c1ccc(-c2ccco2)cc1` [compound 247], the half-maximal effective concentration (EC50) in data set [1] (setting [8]) was determined as 18.8 nM.
On the same count and under the same terms, then `CN(Cc1ccccc1OCCCCCC(=O)O)C(=O)c1ccc(C#CC2CC2)cc1` [compound 248], with 21.1 nM.
